Assays:
[1] = test system: mTORC1 pathway (pS6); assay: pS6 immunoblot of striatum and heart after one week of oral dosing in N171-82Q HD mice; type: in vivo; conditions: N171-82Q mice, oral 160 mg/kg daily for one week
Experimental: (§1) The initial trial consisted in one week of oral dosing in 12 weeks old N171-82Q males. The chronic 6 weeks treatment (Veh n = 15, NV-5297 n = 14) took place from 6 to 12 weeks of age. The cardiac stress took place in animals from 10 to 12 weeks of age (Veh-Sal n = 9, NV-Sal n = 10, Veh-Iso n = 16, NV-Iso n = 11).
Specific regions of the brain and heart were homogenized using a Next Advance Bullet Blender Storm in Lysis Buffer (Cell lysis buffer: 1% Triton X-100, 50 mM HEPES pH 7.4, 100 mM sodium chloride, 2 mM EDTA, 10 mM Beta-glycerophosphate, 10 mM Sodium pyrophosphate, and 1 protease inhibitor) at 4°C. Lysates were cleared by centrifugation at 13,200 rpm at 4°C for 10 minutes. Equal amounts of total protein from each sample were denatured and, resolved by SDS-PAGE. Membranes were imaged using the LI-COR imaging system. Proteins levels are normalized to tubulin, actin or GAPDH levels and further normalized to vehicle treated mice for each tissue.
Supplementary file pone.0273710.s002.tiff: S2 Fig Activation of the mTORC1 pathway in mice striatum and heart after oral dosing with NV-5297. (A) Representative immunoblot for the phosphorylated (^S240/244pS6), S6 and actin or tubulin in the striatum and heart of N171-82Q wild-type (WT) mice or N171-82Q HD mice respectively collected 1 hour after the last dose of a week of oral dosing with vehicle (Veh) or NV-5297 (160 mg/kg; A). Quantification of levels of ^S240/244pS6 in the striatum (B) and the heart (C) normalized to loading control levels and further normalized to untreated WT mice. Data are presented as mean ± SEM. **P ≤ 0.01, ***P ≤ 0.001 and ****P ≤ 0.0001 (Kruskal-Wallis test with Dunn’s multiple comparison tests). (TIFF) Click here for additional data file.

[2] = test system: N171-82Q HD mice; assay: Isoprenaline cardiac stress: survival, weight, echocardiography, heart weight, cardiomyocyte area, fibrosis; type: in vivo, N171-82Q mice
Experimental: as §1
Mice were anesthetized with 2% isoflurane and restrained on a stage with electrocardiogram (EKG) sensors. Transthoracic echocardiograms were performed using the Vevo 3100 Imaging System with a linear array MX550D transducer. Images were acquired by an experienced echocardiographer and then analyzed offline using the Vevo LAB analysis software. Parasternal long axis views and short axis views were used to assess left ventricular function. Measurements were performed to evaluate left ventricular dimensions during both systole and diastole of the cardiac cycle. The Vevo LAB left ventricle [LV] analysis tool, LV trace, was used to calculate cardiac output [CO] (heart rate ∙ stroke volume), fractional shortening [FS] (ventricle diameter at the end of the diastole–ventricle diameter at the end of the systole), ejection fraction [EF] (percentage of blood ejected by the left ventricle by heart beat), stroke volume (SV) (blood volume ejected from the left ventricle per beat), heart rate [HR] (bpm), left ventricular mass [LVmass], dimensions and volumes. Both imaging and analysis were performed by an operator blinded to the mice experimental treatment.
Cardiomyocyte area was measured in wheat germ agglutinin-labelled heart sections as previously described. Briefly, sections were cleared and rehydrated through xylene and ethanol, then labelled with WGA conjugated to Alexa Fluor 594 (8 μg/ml, Biotium) per manufacturer’s protocol. Sections were counterstained with Hoechst stain (2 μg/ml, Thermo Scientific). High-power digital images were collected such that the entirety of the left ventricular free wall was represented. A grid was superimposed over each image in ImageJ to randomly select cardiomyocytes sectioned perpendicular to the long axis, and the area of those cells was measured manually. At least 240 cardiomyocytes were measured per section. Cardiomyocyte areas were averaged for each treatment group.
The percent of area occupied by fibrotic tissue was calculated as previously described. Briefly, heart sections were cleared and rehydrated through xylene and ethanol. Sections were counterstained with Weigert’s haematoxylin (Sigma) per manufacturer’s protocol. Collagen was labelled by staining to equilibrium with Picrosirius red (0.1% Direct Red 80, Sigma, in saturated picric acid, Sigma). Bright field and corresponding polarized light digital images were taken such that the entirety of the left ventricular free wall was represented. Image threshold was adjusted to highlight either the entire tissue (bright field) or the fibrotic tissue (polarized) in ImageJ, and percent area occupied by fibrotic tissue was calculated from these images. Large vessels were excluded from the analysis.
Isoprenaline (Sigma) was dissolved in sterile PBS and administered by continuous infusion using implantable mini-osmotic pumps (Alzet) at a dose of 30 mg/kg body mass/day. Pumps were filled and primed in a sterile environment and inserted under 2.5% isoflurane anesthesia into the right dorsal subcutaneous space caudal to the scapulae.
We next tested if daily NV-5297 dosing in HD mice could enable cardiac adaptation to chronic stress. In this experiment, the NV-Sal and Veh-Sal groups have an osmotic pump implant on their back. The presence of this pump makes the echocardiography more challenging, justifying the difference to the baseline groups measurements along with the smaller sample size for this experiment. For this study, we found no significant […] and therefore we focused on the changes within the vehicle-treated groups and within the NV-5297-treated groups. […]

[3] = N171-82Q mice under isoprenaline cardiac stress

## CC(C)(C[C@H](N)C(=O)O)C(F)(F)F [NV-5297, (S)-2-amino-5,5,5-trifluoro-4,4-dimethylpentanoic acid]
[1]
  pS6 in heart relative to vehicle: increased
  pS6 in striata relative to vehicle: increased
  ratio of pS6 level in striatum and heart compared with age-matched WT mice: normalized
[2]; Iso-stressed N171-82Q mice (isoprenaline 30 mg/kg/day, 14 days), NV-5297 160 mg/kg oral daily
  mortality: 45%
[2]; [3]
  body weight over trial duration: maintained their weight
  cardiac output from baseline: increase
  cardiomyocyte area: increased
  ejection fraction from baseline: increased
  fractional shortening from baseline: increased
  heart fibrosis: devoid of fibrosis
  heart mass: elevated
  stroke volume from baseline: increased
[2]; N171-82Q mice under isoprenaline cardiac stress (NV-Iso)
  heart rate: maintain a normal heart rate
[2]; N171-82Q mice with saline implant (NV-Sal group), NV-5297 160 mg/kg oral daily
  survival: 100%

From publication PMC9423655, “Huntington’s disease phenotypes are improved via mTORC1 modulation by small molecule therapy” (PLoS ONE, 2022)
